Data on 14 compounds can be found in ChEMBL document CHEMBL3734673, “Potent chemical chaperone compounds for GM1-gangliosidosis: N-substituted (+)-conduramine F-4 derivatives” (Medchemcomm, 2015).

Data set [1] in a line: Cytotoxicity against human fibroblasts at 200 uM by LDH assay. The format is cell-based. The following applies: fibroblast.
In a further data set the target is T1, Beta-galactosidase (Homo sapiens, UniProt P16278).
T1 sequence (P16278 whole entry): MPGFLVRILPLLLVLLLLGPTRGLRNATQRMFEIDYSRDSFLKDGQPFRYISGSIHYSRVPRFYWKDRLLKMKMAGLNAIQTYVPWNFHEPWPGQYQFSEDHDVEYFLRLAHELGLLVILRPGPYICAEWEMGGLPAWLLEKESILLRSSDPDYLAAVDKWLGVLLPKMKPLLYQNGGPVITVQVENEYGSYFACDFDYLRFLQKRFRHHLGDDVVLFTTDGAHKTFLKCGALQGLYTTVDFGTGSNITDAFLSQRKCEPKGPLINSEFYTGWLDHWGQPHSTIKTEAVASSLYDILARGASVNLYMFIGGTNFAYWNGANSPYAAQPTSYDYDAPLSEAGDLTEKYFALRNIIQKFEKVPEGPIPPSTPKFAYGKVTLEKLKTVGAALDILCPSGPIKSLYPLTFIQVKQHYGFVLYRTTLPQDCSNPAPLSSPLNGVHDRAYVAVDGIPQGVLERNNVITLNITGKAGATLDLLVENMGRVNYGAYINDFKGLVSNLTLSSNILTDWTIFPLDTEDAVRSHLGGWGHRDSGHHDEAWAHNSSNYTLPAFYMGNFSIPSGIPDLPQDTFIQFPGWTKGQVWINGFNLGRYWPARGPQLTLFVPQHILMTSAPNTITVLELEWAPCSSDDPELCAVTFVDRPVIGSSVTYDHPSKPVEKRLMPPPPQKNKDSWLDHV
Briefly: Inhibition of human beta-galactosidase expressed in mouse fibroblasts using 4-methylumbelliferone -conugated beta-D-galactoside as substrate incubated for 30 mins at pH 4.5 followed by substrate addition by fluorescence analysis.

Data set [2] addresses T2, Beta-galactosidase (Bos taurus) (UniProt Q58D55).
T2 sequence (whole entry): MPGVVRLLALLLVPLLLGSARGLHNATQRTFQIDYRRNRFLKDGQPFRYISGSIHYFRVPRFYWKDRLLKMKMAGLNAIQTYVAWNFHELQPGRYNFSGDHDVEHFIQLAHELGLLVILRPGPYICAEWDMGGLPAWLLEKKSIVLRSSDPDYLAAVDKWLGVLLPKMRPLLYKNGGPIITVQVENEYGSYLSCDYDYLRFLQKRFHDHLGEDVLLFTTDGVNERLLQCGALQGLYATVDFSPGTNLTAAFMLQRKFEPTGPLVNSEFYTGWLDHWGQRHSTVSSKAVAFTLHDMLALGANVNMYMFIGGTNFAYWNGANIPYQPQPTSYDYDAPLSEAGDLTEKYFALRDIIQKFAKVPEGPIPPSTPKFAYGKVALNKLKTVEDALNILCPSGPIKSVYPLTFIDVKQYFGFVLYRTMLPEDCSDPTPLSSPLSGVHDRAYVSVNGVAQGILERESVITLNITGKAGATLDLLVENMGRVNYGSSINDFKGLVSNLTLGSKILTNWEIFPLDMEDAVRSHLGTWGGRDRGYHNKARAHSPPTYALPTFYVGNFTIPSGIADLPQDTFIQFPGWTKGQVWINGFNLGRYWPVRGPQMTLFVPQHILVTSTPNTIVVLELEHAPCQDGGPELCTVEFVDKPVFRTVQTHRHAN
The data set is described as follows: Inhibition of bovine liver beta-galactosidase using p-nitrophenyl-beta-D-galactopyranoside as substrate preincubated with substrate followed by protein addition measured after 30 mins by microplate reader analysis.

The next data set deals with Prunus dulcis. Briefly: Inhibition of almond beta-glucosidase using p-nitrophenyl-beta-D-glucopyranoside as substrate preincubated with substrate followed by protein addition measured after 30 mins by microplate reader analysis.
Data set [3] in a line: Inhibition of human alpha-galactosidase isolated from human fibroblasts incubated for 30 mins using […] analysis.
Data set [4] relates to T3, Beta-galactosidase (Homo sapiens), P16278 [R201C].
T3 sequence (whole entry): T1 sequence (P16278 whole entry) with R201C
Briefly: Activation of human beta-galactosidase R201C mutant expressed in mouse fibroblasts using 4-methylumbelliferone -conugated beta-D-galactoside as substrate at 20 uM preincubated for 48 hrs followed by substrate addition measured after 30 mins by fluorescence analysis relative to control.

Data set [5] concerns the target T4, Lysosomal acid glucosylceramidase (Homo sapiens, UniProt P04062).
T4 sequence (P04062 whole entry): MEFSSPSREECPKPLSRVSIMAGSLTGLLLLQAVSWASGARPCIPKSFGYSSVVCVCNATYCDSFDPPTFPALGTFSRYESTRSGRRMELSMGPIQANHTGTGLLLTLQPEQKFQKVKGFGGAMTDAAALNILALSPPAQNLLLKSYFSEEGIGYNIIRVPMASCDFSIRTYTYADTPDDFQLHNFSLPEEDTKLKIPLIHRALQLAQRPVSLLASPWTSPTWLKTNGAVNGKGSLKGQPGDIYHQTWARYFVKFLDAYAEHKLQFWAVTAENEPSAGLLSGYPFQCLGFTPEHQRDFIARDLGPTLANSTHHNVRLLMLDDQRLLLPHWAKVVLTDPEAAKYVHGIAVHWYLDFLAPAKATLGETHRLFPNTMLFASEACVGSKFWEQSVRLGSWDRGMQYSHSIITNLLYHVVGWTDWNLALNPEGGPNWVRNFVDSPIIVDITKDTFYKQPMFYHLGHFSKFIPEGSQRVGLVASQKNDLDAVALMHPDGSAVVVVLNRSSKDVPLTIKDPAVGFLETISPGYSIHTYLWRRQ
Briefly: Inhibition of human beta-glucosidase isolated from human fibroblasts incubated for 30 mins using […] analysis.

Data set [6] can be described thus: Cytotoxicity against human fibroblasts at 20 uM by LDH assay. Format: cell-based. The conditions noted are these: fibroblast.
In data set [7] the test system is T3, Beta-galactosidase (Homo sapiens), P16278 [R201C]. The data set is described as follows: Activation of human beta-galactosidase R201C mutant expressed in mouse fibroblasts using 4-methylumbelliferone -conugated beta-D-galactoside as substrate at 2 uM preincubated for 48 hrs followed by substrate addition measured after 30 mins by fluorescence analysis relative to control.

Positions count from the first letter of the chain named. Calls of active or inactive are those of the source. No cut-off for these calls is given here.

The term IC50 denotes the concentration at which inhibition is half-maximal. The low end stands for greater potency, the high end for weaker potency. In [1], `Cl.OCCCN[C@@H]1C=C[C@H](O)[C@H](O)[C@H]1O` returned an Activity of under 10%. The IC50 (against Beta-galactosidase; in data set [3]; in [5]) was over 1000 µM each time. For the same compound, the inhibition entry (in data set [2]; in the data set with Prunus dulcis) was “Active” in each case. The fold change (FC) in data set [4] was determined as 0.9.
On to `Cl.O[C@@H]1[C@@H](O)[C@H](NCC2CCCCC2)C=C[C@@H]1O`, for which the Activity is 3.8% in data set [1] and 0.7% in [6]. The IC50 against Beta-galactosidase was 60 µM; in data set [3], over 1000 µM; in [5], over 1000 µM. The inhibition entry (in [2]; with Prunus dulcis) was “Active” throughout. In data set [4], the fold change (FC) came out at 8.5.
`CCCCCCN[C@@H]1C=C[C@H](O)[C@H](O)[C@H]1O.Cl`: the Activity in [1] was under 10%. Further, the 50% inhibitory concentration (IC50) was 56 µM on Beta-galactosidase, over 1000 µM in [3] and over 1000 µM in data set [5]. The inhibition entry (in [2]; in the data set with Prunus dulcis) was “Active” throughout. Moreover, in data set [4], the fold change (FC) was 4.6.
Consider `CC(C)CN[C@@H]1C=C[C@H](O)[C@H](O)[C@H]1O.Cl`, for which the Activity in data set [1] was under 10%. Besides, the half-maximal inhibitory concentration (IC50) against Beta-galactosidase was 41 µM; in [3], over 1000 µM; in data set [5], over 1000 µM. The inhibition result (in data set [2]; in the data set on Prunus dulcis) was “Active” throughout. For the same compound, the fold change (FC) in data set [4] was 4.6.
In data set [1], `Cl.O[C@@H]1[C@@H](O)[C@H](NC2CCCCC2)C=C[C@@H]1O` returned an Activity of under 10%. For the same compound, the half-maximal inhibitory concentration (IC50) at Beta-galactosidase was 490 µM; in data set [3], over 1000 µM; in data set [5] it was over 1000 µM. The inhibition entry (in [2]; in the data set on Prunus dulcis) was “Active” throughout. Besides, the fold change (FC) in [4] amounted to 1.4.
For `Cl.O[C@@H]1[C@@H](O)[C@H](NCCc2ccccc2)C=C[C@@H]1O`, the Activity in data set [1] is under 10%. Besides, the concentration for half-maximal inhibition (IC50) was 86 µM against Beta-galactosidase, over 1000 µM in [3] and over 1000 µM in data set [5]. In addition, the inhibition result (in data set [2]; with Prunus dulcis) was “Active” in each case. Besides, the fold change (FC) in data set [4] stood at 4.2.
With `CCC(CC)N[C@@H]1C=C[C@H](O)[C@H](O)[C@H]1O.Cl`, the Activity in data set [1] is under 10%. In addition, the half-maximal inhibitory concentration (IC50) (against Beta-galactosidase; in [3]; in [5]) was over 1000 µM each time. Further, the inhibition entry (in data set [2]; in the data set with Prunus dulcis) was “Active” in each case. In addition, the fold change (FC) in data set [4] is 1.2.
`CC(C)CCN[C@@H]1C=C[C@H](O)[C@H](O)[C@H]1O.Cl` returned an Activity in data set [1] of under 10%. Moreover, the IC50 was 28 µM on Beta-galactosidase, over 1000 µM in data set [3] and over 1000 µM in data set [5]. The inhibition result (in [2]; with Prunus dulcis) was “Active” in each case. For the same compound, the fold change (FC) in [4] came to 4.6.
In the case of `CCCCCN[C@@H]1C=C[C@H](O)[C@H](O)[C@H]1O.Cl`, the Activity in data set [1] was under 10%. The concentration for half-maximal inhibition (IC50) against Beta-galactosidase is 19 µM; in data set [3] it was over 1000 µM; in data set [5], over 1000 µM. For the same compound, the inhibition result (in data set [2]; in the data set on Prunus dulcis) was “Active” each time. Also, in data set [4], the fold change (FC) came out at 4.
As for `CCCCCCCCN[C@@H]1C=C(CO)[C@H](O)[C@H](O)[C@H]1O.Cl`, the Activity in [1] is reported as 7.5%; in data set [6] it was 1.1%. Besides, the IC50 on Beta-galactosidase was 1.7 µM; in data set [3] it was over 1000 µM; in [5], over 1000 µM. Moreover, the fold change (FC) in data set [7] came out at 4.6; in data set [4] it was 3.6.
`CCCCN[C@@H]1C=C[C@H](O)[C@H](O)[C@H]1O.Cl` showed an Activity in data set [1] of under 10%. Further, the IC50 against Beta-galactosidase was 50 µM; in [3] it was over 1000 µM; in [5] it was over 1000 µM. Also, the inhibition result (in [2]; with Prunus dulcis) was “Active” throughout. In addition, the fold change (FC) in data set [4] was 2.
As for `CCCCCCCCCCN[C@@H]1C=C[C@H](O)[C@H](O)[C@H]1O.Cl`, the Activity in [1] stood at 54%; in data set [6], 24%. The figures for the concentration for half-maximal inhibition (IC50) (on Beta-galactosidase; in [3]; in [5]) were 43 µM, over 1000 µM and over 1000 µM, respectively. In addition, the inhibition entry (in data set [2]; with Prunus dulcis) was “Active” throughout. In addition, the fold change (FC) in data set [4] was 1.6.
In data set [1], `Cl.O[C@@H]1[C@@H](O)[C@H](NCc2ccccc2)C=C[C@@H]1O` had an Activity of under 10%. Also, the IC50 is 180 µM against Beta-galactosidase, over 1000 µM in data set [3] and over 1000 µM in [5]. Moreover, the inhibition result (in [2]; in the data set on Prunus dulcis) was “Active” in each case. The fold change (FC) in data set [4] was 1.5.
Consider `CCC(CC)CN[C@@H]1C=C[C@H](O)[C@H](O)[C@H]1O.Cl`, for which, in data set [1], the Activity is under 10%. For the same compound, the IC50 on Beta-galactosidase is 15 µM; in data set [3], over 1000 µM; in data set [5], over 1000 µM. For the same compound, the inhibition entry (in [2]; in the data set on Prunus dulcis) was “Active” each time. Also, in [4], the fold change (FC) turned out to be 7.4.
